From US11505575B2, “Cyclic polypeptides for PCSK9 inhibition” (Merck Sharp & Dohme LLC, priority 2018, dated 2022)
*1 amine or outer side, *2 acyl side, *3 side chain or, on linkers, in order; H or OH if unused. Where a SMILES comes first, the peptide text is derived from it. Bridges are numbered along the chain shown (N, C = ends). [ ]: non-standard residue; d: D form. The star is where a group is joined. ξ: configuration not given here. αMeNva(5-ylidene) = C[C@@](CCC=[*:3])(N[*:1])C(=O)[*:2]; Trp(5-F) = N[C@@H](Cc1c[nH]c2ccc(F)cc12)C(=O)O; Trp(7-aza) = N[C@@H](Cc1c[nH]c2ncccc12)C(=O)O; X1 = C[C@@](CCCCC=[*:3])(N[*:1])C(=O)[*:2]; pY = N[C@@H](Cc1ccc(OP(=O)(O)O)cc1)C(=O)O; X2 = O=C(CCSCc1cccc(CSCCN[*:1])c1)[*:2]; 1Nal = N[C@@H](Cc1cccc2ccccc12)C(=O)O; mXylylene = c1cc(C[*:1])cc(C[*:2])c1; Aad = N[C@@H](CCCC(=O)O)C(=O)O; aThr = C[C@H](O)[C@H](N)C(=O)O; Chg = N[C@H](C(=O)O)C1CCCCC1; Tle = CC(C)(C)[C@H](N)C(=O)O; αMeK = C[C@](N)(CCCCN)C(=O)O; αMeV = CC(C)[C@](C)(N)C(=O)O; αMeS = C[C@](N)(CO)C(=O)O; Api = NC1(C(=O)O)CCNCC1; Nva = CCC[C@H](N)C(=O)O; ξαMeS = CC(N)(CO)C(=O)O; Aib = CC(C)(N)C(=O)O; Mpa = O=C(O)CCS; X5 = COCC*

Legend:
Format in all cases: binding
PCSK9 [1] = biological target: T1, PCSK9 (Homo sapiens, UniProt Q8NBP7); test: PCSK9 Alexa FRET Standard assay (displacement of AlexaFluor647-tagged cyclic peptide Reagent A); settings: 0.5 nM PCSK9, 20 nM AF cyclic peptide Reagent A
T1 construct: biotin (biotinylated)
T1 sequence (Q8NBP7 153-692): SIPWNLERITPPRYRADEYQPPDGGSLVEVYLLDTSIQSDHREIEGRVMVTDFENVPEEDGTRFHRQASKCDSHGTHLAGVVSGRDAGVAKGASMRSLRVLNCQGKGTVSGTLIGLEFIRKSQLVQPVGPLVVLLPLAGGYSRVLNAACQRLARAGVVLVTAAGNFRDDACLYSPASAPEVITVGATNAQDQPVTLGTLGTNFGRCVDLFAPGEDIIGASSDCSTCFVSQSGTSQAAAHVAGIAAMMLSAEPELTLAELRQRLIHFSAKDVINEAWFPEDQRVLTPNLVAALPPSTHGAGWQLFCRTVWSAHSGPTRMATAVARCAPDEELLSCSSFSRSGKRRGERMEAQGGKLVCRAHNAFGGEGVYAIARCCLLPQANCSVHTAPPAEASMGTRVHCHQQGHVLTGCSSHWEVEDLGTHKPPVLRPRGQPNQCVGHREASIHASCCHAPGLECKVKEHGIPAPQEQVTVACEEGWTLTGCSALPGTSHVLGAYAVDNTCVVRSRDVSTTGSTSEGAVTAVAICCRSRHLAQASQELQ
Procedure: A solution containing 1 nM biotinylated PCSK9+2.5 nM Lance Streptavidin Europium (Strep-Eu) was made in 50 mM HEPES pH 7.4, 0.15 M NaCl, 5 mM CaCl2, 0.01% BSA, and 0.01% Surfactant P20. A separate solution containing 40 nM of the AlexaFluor tagged cyclic peptide was made in the same buffer system. An Echo was used to transfer 0.750 ul of compound to an assay plate followed by the addition of 15 ul of PCSK9+Stept-Eu and 15 ul of AF peptide. The final assay volume was 30.750 ul containing 0.5 nM PCSK9, 1.25 nM Strep-Eu, and 20 nM AF cyclic peptide. The reaction was incubated at room temperature for at least two hours prior to fluorescence measurements using an Envision Multilabel Reader. IC50 values were determined by fitting data to a sigmoidal dose-response curve using nonlinear regression. Ki was then calculated from the IC50 and the KD of AF cyclic peptide. Counts (B-counts) of the europium-labeled PCSK9 were followed to observe if compounds were […]. A fall off of the B-counts likely indicated a false positive of inhibition. Data from this procedure was reported as “A=‘numerical value’ (nanomolar)”

PCSK9 [2] = biological target: T1, PCSK9; test: PCSK9 Alexa FRET Plus assay (displacement of AlexaFluor647-tagged cyclic peptide Reagent B); settings: 0.5 nM PCSK9, 960 nM AF cyclic peptide Reagent B
Procedure: A solution containing 1 nM biotinylated PCSK9+2.5 nM Lance Streptavidin Europium (Strep-Eu) was made in 50 mM HEPES pH 7.4, 0.15 M NaCl, 5 mM CaCl2, 0.01% BSA, and 0.01% Surfactant P20. A separate solution containing 1920 nM of the AlexaFluor tagged cyclic peptide was made in the same buffer system. An Echo was used to transfer 0.075 ul of compound plus 0.675 ul of DMSO to each well of an assay plate followed by the addition of 15 ul of PCSK9+Stept-Eu and 15 ul of AF peptide. The final assay volume was 30.750 ul containing 0.5 nM PCSK9, 1.25 nM Strep-Eu, and 960 nM AF cyclic peptide. The reaction was incubated at room temperature for at least two hours prior to fluorescence measurements using an Envision Multilabel Reader. IC50 values were determined by fitting data to a sigmoidal dose-response curve using nonlinear regression. Ki was then calculated from the IC50 and the KD of AF cyclic peptide. Counts (B-counts) of the europium-labeled PCSK9 were followed to observe if compounds were adversely affecting PCSK9. A fall off of the B-counts likely indicated a false positive of inhibition. Data from this procedure was reported as “P=‘numerical value’ (nanomolar)”

[3] = biological target: human PCSK9 / human LDLR EGFa domain interaction (Homo sapiens, UniProt Q8NBP7); test: TR-FRET assay of inhibition of the PCSK9-LDLR protein-protein interaction; settings: 20 nM biotinylated human PCSK9 + 20 nM his-tagged human LDLR EGFa domain, 2 hours room temperature
human PCSK9 / human LDLR EGFa domain interaction, sequence (Q8NBP7 153-692): as above
human PCSK9 / human LDLR EGFa domain interaction, sequence (Q8NBP7 31-152 partner limits assumed): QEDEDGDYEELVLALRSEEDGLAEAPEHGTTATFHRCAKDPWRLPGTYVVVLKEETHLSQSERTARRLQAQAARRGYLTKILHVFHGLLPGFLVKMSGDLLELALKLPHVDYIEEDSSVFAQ
In short: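 Biotinylated human PCSK9 (20 nM) and His-tagged human LDLR EGFa domain (20 nM) incubated with Ulight-streptavidin and Eu-anti-His (5 nM each), 2 h at room temperature, in HEPES pH buffer with 5 mM CaCl2. TR-FRET read-out; IC50 from 4-parameter fit of dose-response.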

Row | SMILES | IC50 (PCSK9 [1]) | IC50 (PCSK9 [2]) | IC50 [3]
1 | CC(C)[C@](C)(NC(=O)[C@H](Cc1ccc(O)cc1)NC(=O)[C@H](C)NC(=O)C(C)(C)NC(=O)[C@H](Cc1c[nH]c2ncccc12)NC(=O)[C@@H](NC(=O)[C@@H]1CCCN1C(=O)[C@@H]1Cc2ccc(O)c(c2)CCCC[C@H](N)C(=O)N[C@@H](C(C)(C)C)C(=O)N1)[C@@H](C)O)C(N)=O [Compound 032] | 1 to 100 nM | 1 to 100 nM | –
2 | COCCOCC1(C)NC(=O)[C@H](Cc2c[nH]c3ncccc23)NC(=O)[C@H]([C@@H](C)O)NC(=O)[C@@H]2CCCN2C(=O)[C@H](Cc2ccc(O)cc2)NC(=O)[C@H](C(C)(C)C)NC(=O)[C@@H](NC(C)=O)CSCc2cccc(c2)CSC[C@H](C(N)=O)NC(=O)[C@H]([C@@H](C)O)NC(=O)[C@](C)(C(C)C)NC(=O)[C@H](Cc2ccc(O)cc2)NC(=O)[C@H](C)NC1=O (some centres unmarked) [Compound 036] (Ac-C[Tle]YPT[Trp(7-aza)][ξαMeS](X5)AY[αMeV]T[dC]-NH2; linker 1-12 via mXylylene) | 1 to 100 nM | 1 to 100 nM | –
3 | CC(=O)N[C@H]1CSCc2cccc(c2)CSC[C@H](C(N)=O)NC(=O)[C@H]([C@@H](C)O)NC(=O)[C@](C)(C(C)C)NC(=O)[C@H](Cc2ccc(O)cc2)NC(=O)[C@H](C)NC(=O)[C@](C)(CO)NC(=O)[C@H](Cc2c[nH]c3ncccc23)NC(=O)[C@H]([C@@H](C)O)NC(=O)[C@@H]2CCCN2C(=O)[C@H](Cc2ccc(O)cc2)NC(=O)[C@H](C(C)(C)C)NC1=O [Compound 031] (Ac-C[Tle]YPT[Trp(7-aza)][αMeS]AY[αMeV]T[dC]-NH2; linker 1-12 via mXylylene) | 1 to 100 nM | 1 to 100 nM | –
4 | CC(=O)N[C@H]1CSCc2cccc(c2)CSC[C@H](C(N)=O)NC(=O)[C@H]([C@@H](C)O)NC(=O)[C@](C)(C(C)C)NC(=O)[C@H](Cc2ccc(O)cc2)NC(=O)[C@H](C)NC(=O)C2(CCNCC2)NC(=O)[C@H](Cc2c[nH]c3ncccc23)NC(=O)[C@H]([C@@H](C)O)NC(=O)[C@@H]2CCCN2C(=O)[C@H](Cc2ccc(O)cc2)NC(=O)[C@H](C(C)(C)C)NC1=O [Compound 034] (Ac-C[Tle]YPT[Trp(7-aza)][Api]AY[αMeV]T[dC]-NH2; linker 1-12 via mXylylene) | 1 to 100 nM | 1 to 100 nM | –
5 | COCC1(C)NC(=O)[C@H](Cc2c[nH]c3ncccc23)NC(=O)[C@H]([C@@H](C)O)NC(=O)[C@@H]2CCCN2C(=O)[C@H](Cc2ccc(O)cc2)NC(=O)[C@H](C(C)(C)C)NC(=O)[C@@H](NC(C)=O)CSCc2cccc(c2)CSC[C@H](C(N)=O)NC(=O)[C@H]([C@@H](C)O)NC(=O)[C@](C)(C(C)C)NC(=O)[C@H](Cc2ccc(O)cc2)NC(=O)[C@H](C)NC1=O (some centres unmarked) [Compound 035] (Ac-C[Tle]YPT[Trp(7-aza)][ξαMeS](Me)AY[αMeV]T[dC]-NH2; linker 1-12 via mXylylene) | 100 to 1000 nM | 100 to 500 nM | –
6 | CC(=O)N[C@H]1CSCc2cccc(c2)CSC[C@H](C(N)=O)NC(=O)[C@H]([C@H](C)O)NC(=O)[C@](C)(C(C)C)NC(=O)[C@H](Cc2ccc(O)cc2)NC(=O)[C@H](C)NC(=O)C(C)(C)NC(=O)[C@H](Cc2c[nH]c3ncccc23)NC(=O)[C@H]([C@@H](C)O)NC(=O)[C@@H]2CCCN2C(=O)[C@H](Cc2c[nH]c3ccc(F)cc23)NC(=O)[C@H](C(C)(C)C)NC1=O [Compound 042] (Ac-C[Tle][Trp(5-F)]PT[Trp(7-aza)][Aib]AY[αMeV][aThr][dC]-NH2; linker 1-12 via mXylylene) | 1 to 100 nM | 1 to 100 nM | –
7 | CC(=O)N[C@H]1CSCc2cccc(c2)CSC[C@H](C(N)=O)NC(=O)[C@H]([C@H](C)O)NC(=O)[C@](C)(C(C)C)NC(=O)[C@H](Cc2ccc(OP(=O)(O)O)cc2)NC(=O)[C@H](C)NC(=O)C(C)(C)NC(=O)[C@H](Cc2c[nH]c3ncccc23)NC(=O)[C@H]([C@@H](C)O)NC(=O)[C@@H]2CCCN2C(=O)[C@H](Cc2ccc(O)cc2)NC(=O)[C@H](C(C)(C)C)NC1=O [Compound 039] (Ac-C[Tle]YPT[Trp(7-aza)][Aib]A[pY][αMeV][aThr][dC]-NH2; linker 1-12 via mXylylene) | 100 to 1000 nM | 1 to 100 nM | –
8 | CCC[C@@H]1NC(=O)[C@H](Cc2cccc3ccccc23)NC(=O)[C@H]([C@@H](C)O)NC(=O)[C@@H]2CCCN2C(=O)[C@H](Cc2ccccc2)NC(=O)[C@H](C(C)C)NC(=O)CCSCc2cccc(c2)CSCCNC(=O)[C@H](C)NC(=O)[C@](C)(C(C)C)NC(=O)[C@H](Cc2ccccc2)NC(=O)[C@H](C)NC1=O [Compound 022] (cyclo([1Nal][Nva]AF[αMeV]A[X2]VFPT)) | 1 to 100 nM | – | 100 to 1000 nM
9 | CCC[C@@H]1NC(=O)[C@H](Cc2ccc(O)cc2)NC(=O)[C@H](C)NC(=O)[C@]2(C)CC/C=C\CCCC[C@](C)(NC1=O)C(=O)N[C@H](C(N)=O)CCCCNC(=O)CCC[C@H](NC(C)=O)C(=O)N[C@@H](C(C)(C)C)C(=O)N[C@@H](Cc1ccc(O)cc1)C(=O)N1CCC[C@H]1C(=O)N[C@@H]([C@@H](C)O)C(=O)N[C@@H](Cc1c[nH]c3ncccc13)C(=O)N2 [Compound 104] (Ac-[Aad][Tle]YPT[Trp(7-aza)][αMeNva(5-ylidene)]AY[Nva][X1]K-NH2; lactam 1-12; staple (Z) 7-11) | 100 to 1000 nM | – | 1000 to 12100 nM
10 | CC(C)[C@]1(C)NC(=O)[C@H](Cc2ccc(O)cc2)NC(=O)[C@H](C)NC(=O)[C@](C)(CCCCN)NC(=O)[C@H](Cc2c[nH]c3ncccc23)NC(=O)[C@H]([C@@H](C)O)NC(=O)[C@@H]2CCCN2C(=O)[C@H](Cc2ccc(O)cc2)NC(=O)[C@H](C(C)(C)C)NC(=O)CCSCc2cccc(c2)CSC[C@@H](C(N)=O)NC(=O)[C@H]([C@@H](C)O)NC1=O [Compound 023] ([Mpa][Tle]YPT[Trp(7-aza)][αMeK]AY[αMeV]TC-NH2; linker 1-12 via mXylylene) | 1 to 100 nM | – | 1 to 100 nM
11 | CC1O[C@@H](C)[C@@H]2NC(=O)[C@@]1(C)NC(=O)[C@H](Cc1ccc(O)cc1)NC(=O)[C@H](C)NC(=O)C(C)(C)NC(=O)[C@H](Cc1c[nH]c3ncccc13)NC(=O)[C@H]([C@@H](C)O)NC(=O)[C@@H]1CCCN1C(=O)[C@H](Cc1ccc(O)cc1)NC(=O)[C@H](C(C)(C)C)NC(=O)CCSCc1cccc(c1)CSC[C@@H](C(N)=O)NC2=O (some centres unmarked) [Compound 017] | 1 to 100 nM | – | 100 to 1000 nM
12 | CCC[C@@H]1NC(=O)[C@H](Cc2c[nH]c3ncccc23)NC(=O)[C@H]([C@@H](C)O)NC(=O)[C@H](Cc2cnc[nH]2)NC(=O)[C@H](Cc2ccc(O)cc2)NC(=O)[C@H](C(C)(C)C)NC(=O)CCSCc2cccc(c2)CSC[C@@H](C(N)=O)NC(=O)[C@H]([C@@H](C)O)NC(=O)[C@H](Cc2ccc(O)cc2)NC(=O)[C@H](Cc2ccc(O)cc2)NC(=O)[C@H](CCC(=O)O)NC1=O [Compound 071] ([Mpa][Tle]YHT[Trp(7-aza)][Nva]EYYTC-NH2; linker 1-12 via mXylylene) | 1 to 100 nM | – | 100 to 1000 nM
13 | CCC[C@H](NC(=O)[C@H](CCCCN)NC(C)=O)C(=O)N[C@H]1CSCc2cccc(c2)CSC[C@@H](C(N)=O)NC(=O)[C@H]([C@@H](C)O)NC(=O)[C@H](C2CCCCC2)NC(=O)[C@H](Cc2c[nH]c3ncccc23)NC(=O)[C@H](Cc2cnc[nH]2)NC(=O)[C@H](CCC(=O)O)NC(=O)[C@H](Cc2c[nH]c3ncccc23)NC(=O)[C@H]([C@@H](C)O)NC(=O)[C@@H]2CCCN2C(=O)[C@H](Cc2ccc(O)cc2)NC(=O)[C@H](C(C)(C)C)NC1=O [Compound 002] (Ac-K[Nva]C[Tle]YPT[Trp(7-aza)]EH[Trp(7-aza)][Chg]TC-NH2; linker 3-14 via mXylylene) | 1 to 100 nM | – | 1 to 100 nM
